Experimental data from patent US10752595B2, “Crystalline forms of a bromodomain and extraterminal protein inhibitor drug, processes for preparation thereof, and use thereof” (Crystal Pharmaceutical (Suzhou) Co., Ltd., priority 2016, dated 2020).
In brackets after ≈: the same amount, converted by molar mass. Entries after “also recorded” stand apart in the source; their conditions may differ.

Legend:
Format in all cases: physicochemical
[1] = Solubility study: saturated solutions in SGF and FeSSIF, concentration by HPLC; conditions: for Solubility FeSSIF: FeSSIF (fed state simulated intestinal fluids, pH=5.0)
Excerpt: High Performance Liquid Chromatography (HPLC) data in the present disclosure were collected from an Agilent 1260 with Diode Array Detector (DAD). The HPLC method parameters for purity test in the present disclosure are as follows: • 1. Column: Waters XBridge C18 150×4.6 mm, 5 μm • 2. Mobile Phase: A: 0.1% TFA in H2O • B: 0.1% TFA in Acetonitrile
The prepared apabetalone Form CS2 was suspended into SGF (simulated gastric fluids) and FeSSIF (fed state simulated intestinal fluids, pH=5.0) to obtain saturated solutions. After being equilibrated for 1 h and 24 h, concentrations of the saturated solutions were measured by HPLC.
The prepared Form CS8 was suspended into SGF (simulated gastric fluids) and FeSSIF (fed state simulated intestinal fluids, pH=5.0) to obtain saturated solutions. After being equilibrated for 1 h, concentrations of the saturated solutions were measured by HPLC.
The prepared Form CS13 was suspended into SGF (simulated gastric fluids) and FeSSIF (fed state simulated intestinal fluids, pH=5.0) to obtain saturated solutions. After being equilibrated for 1 h, 4 h and 24 h, concentrations of the saturated solutions were measured by HPLC.
The prepared apabetalone Form CS20 was suspended into SGF (simulated gastric fluids) and FeSSIF (fed state simulated intestinal fluids, pH=5.0) to obtain saturated solutions. After being equilibrated for 1 h, 4 h and 24 h, concentrations of the saturated solutions were measured by HPLC.
The prepared solid of apabetalone Form CS1 was suspended into SGF (simulated gastric fluids) and FeSSIF (fed state simulated intestinal fluids, pH=5.0) to obtain saturated solutions. After being equilibrated for 1 h, 4 h and 24 h, concentrations of the saturated solutions were measured by HPLC.
The prepared solid of apabetalone Form CS7 was suspended into SGF (simulated gastric fluids) and FeSSIF (fed state simulated intestinal fluids, pH=5.0) to obtain saturated solutions. After being equilibrated for 1 h, 4 h and 24 h, concentrations of the saturated solutions were measured by HPLC.
The prepared solid of apabetalone Form CS9 was suspended into SGF (simulated gastric fluids) and FeSSIF (fed state simulated intestinal fluids, pH=5.0) to obtain saturated solutions. After being equilibrated for 1 h, 4 h and 24 h, concentrations of the saturated solutions were measured by HPLC.
The prepared solid of apabetalone Form CS11 was suspended into SGF (simulated gastric fluids) and FeSSIF (fed state simulated intestinal fluids, pH=5.0) to obtain saturated solutions. After being equilibrated for 1 h, 4 h and 24 h, concentrations of the saturated solutions were measured by HPLC.
The prepared solid of apabetalone Form CS4 was suspended into SGF (simulated gastric fluids) and FeSSIF (fed state simulated intestinal fluids, pH=5.0) to obtain saturated solutions. After being equilibrated for 1 h, 4 h and 24 h, concentrations of the saturated solutions were measured by HPLC.

[2] = Stability study: open-dish storage in constant temperature and humidity chambers, XRPD and purity check; conditions: for Form change and purity decrease after storage: open dish
Method: Form CS8 was placed in a constant temperature and humidity chamber at 25° C./60% RH for 2 weeks in open dish. Crystalline form of the sample were tested by XRPD and impurity of the sample were checked. […] Crystalline form of the sample were tested by XRPD and impurity of the sample were checked. […] Two samples of apabetalone Form CS1 were placed in constant temperature and humidity chambers at 25° C./60% RH and 40° C./75% RH for 10 months in open dishes. The samples were characterized by XRPD and chemical impurity. […] Three samples of apabetalone Form CS7 were placed in constant temperature and humidity chambers at 25° C./60% RH and 40° C./75% RH for 4 weeks and 80° C. for 1 day in open dishes. Crystalline form of the sample were tested by XRPD and impurity of the sample were checked. […] Two samples of apabetalone Form CS9 were placed in constant temperature and humidity chambers at 25° C./60% RH and 40° C./75% RH for 10 months in open dishes. Crystalline form of the sample were tested by XRPD and impurity of the sample were tested to check the stability of Form CS9. […] Two samples of apabetalone Form CS11 were placed in constant temperature and humidity chambers at 25° C./60% RH and 40° C./75% RH for 6 weeks in open dishes. Crystalline form of the sample were tested by XRPD and impurity of the sample were tested to check the stability of Form CS11. […] Two samples of apabetalone Form CS4 were placed in open dishes in constant temperature and humidity chambers at 25° C./60% RH and 40° C./75% RH for 10 months. Crystalline form of the sample were tested by XRPD and impurity of the sample were tested to check the stability of Form CS4.

[3] = Hygroscopicity by dynamic vapor sorption (DVS); conditions: for Hygroscopicity class: Chinese Pharmacopoeia 2015 criteria, 80% RH; for Hygroscopicity class / Weight Gain under 80% Relative Humidity: 25° C.; for Weight Gain under 80% Relative Humidity: DVS, about 10 mg of sample; for Form change after DVS test (XRPD): XRPD before and after DVS test
Method: Dynamic Vapor Sorption (DVS) was measured via a SMS (Surface Measurement Systems Ltd.) intrinsic DVS instrument. Its control software is DVS—Intrinsic control software, and its analysis software is DVS—Intrinsic Analysis software. Typical Parameters for DVS test are as follows: • Temperature: 25° C. • Gas and flow rate: N2, 200 mL/min • dm/dt: 0.002%/min • RH range: 0% RH to 95% RH Dynamic vapor sorption (DVS) was applied to test hygroscopicity of Form CS8 in the present disclosure with about 10 mg of sample. […] Dynamic vapor sorption (DVS) was applied to test hygroscopicity of Form CS1 of the present disclosure with about 10 mg of sample. […] Dynamic vapor sorption (DVS) was applied to test hygroscopicity of Form CS7 of the present disclosure with about 10 mg of samples. Dynamic vapor sorption (DVS) was applied to test hygroscopicity of Form CS9 of the present disclosure with about 10 mg of sample. […] Dynamic vapor sorption (DVS) was applied to test hygroscopicity of Form CS4 of the present disclosure with about 10 mg of sample.

[4] = SGF (simulated gastric fluids), equilibrated 1 h
[5] = SGF (simulated gastric fluids), equilibrated 4 h
[6] = SGF (simulated gastric fluids), equilibrated 24 h

Row | Solubility FeSSIF ([1]; equilibrated 1 h) | Solubility FeSSIF ([1]; equilibrated 24 h) | Solubility SGF [1, 4] | Time the form is stable when stored ([2]; 25° C./60% RH) | Time the form is stable when stored ([2]; 40° C./75% RH) | Solubility FeSSIF ([1]; equilibrated 4 h) | Solubility SGF [1, 5] | Solubility SGF [1, 6] | Weight Gain under 80% Relative Humidity [3] | Form change after DVS test (XRPD) [3] | SMILES | Hygroscopicity class [3] | other results
1 | – | – | 710 µg/mL (≈ 1920 µM) | at least 6 weeks | at least 6 weeks | – | 650 µg/mL (≈ 1750 µM) | 650 µg/mL (≈ 1750 µM) | – | – | COc1cc(OC)c2c(=O)[nH]c(-c3cc(C)c(OCCO)c(C)c3)nc2c1 [Form CS11, 2-[4-(2-hydroxyethoxy)-3,5-dimethylphenyl]-5,7-dimethoxyquinazolin-4(3H)-one] | – | Form change and purity decrease after storage ([2]; 25° C./60% RH, 6 weeks): No form change and obvious purity decrease; Form change and purity decrease after storage ([2]; 40° C./75% RH, 6 weeks): No form change and obvious purity decrease
2 | 130 µg/mL (≈ 351 µM) | 140 µg/mL (≈ 378 µM) | 350 µg/mL (≈ 945 µM) | – | – | 140 µg/mL (≈ 378 µM) | 310 µg/mL (≈ 837 µM) | 330 µg/mL (≈ 891 µM) | – | – | COc1cc(OC)c2c(=O)[nH]c(-c3cc(C)c(OCCO)c(C)c3)nc2c1 [Form CS13, 2-[4-(2-hydroxyethoxy)-3,5-dimethylphenyl]-5,7-dimethoxyquinazolin-4(3H)-one] | – | –
3 | 190 µg/mL (≈ 513 µM) | 220 µg/mL (≈ 594 µM) | 440 µg/mL (≈ 1190 µM) | at least 2 weeks | at least 2 weeks | 160 µg/mL (≈ 432 µM) | 410 µg/mL (≈ 1110 µM) | 510 µg/mL (≈ 1380 µM) | – | – | COc1cc(OC)c2c(=O)[nH]c(-c3cc(C)c(OCCO)c(C)c3)nc2c1 [Form CS20, 2-[4-(2-hydroxyethoxy)-3,5-dimethylphenyl]-5,7-dimethoxyquinazolin-4(3H)-one] | – | Form change and purity decrease after storage ([2]; 25° C./60% RH, 2 weeks): No form change and obvious purity decrease; Form change and purity decrease after storage ([2]; 40° C./75% RH, 2 weeks): No form change and obvious purity decrease

Further lines, the molecule ahead of its results:

Row | SMILES | Solubility FeSSIF ([1]; equilibrated 1 h) | Solubility FeSSIF ([1]; equilibrated 24 h) | Solubility SGF [1, 4] | Time the form is stable when stored ([2]; 25° C./60% RH) | Time the form is stable when stored ([2]; 40° C./75% RH) | Solubility FeSSIF ([1]; equilibrated 4 h) | Solubility SGF [1, 5] | Solubility SGF [1, 6] | Weight Gain under 80% Relative Humidity [3] | Form change after DVS test (XRPD) [3] | Hygroscopicity class [3] | other results
4 | COc1cc(OC)c2c(=O)[nH]c(-c3cc(C)c(OCCO)c(C)c3)nc2c1 [Form CS2, 2-[4-(2-hydroxyethoxy)-3,5-dimethylphenyl]-5,7-dimethoxyquinazolin-4(3H)-one] | 150 µg/mL (≈ 405 µM) | 240 µg/mL (≈ 648 µM) | 490 µg/mL (≈ 1320 µM) | – | – | – | – | – | – | – | – | solubility at 24 h ([1]; SGF (simulated gastric fluids), simulated gastric fluid, thermodynamic from solid, equilibrated 24 h): 610 µg/mL (≈ 1650 µM)
5 | COc1cc(OC)c2c(=O)[nH]c(-c3cc(C)c(OCCO)c(C)c3)nc2c1 [Form CS7, 2-[4-(2-hydroxyethoxy)-3,5-dimethylphenyl]-5,7-dimethoxyquinazolin-4(3H)-one] | 190 µg/mL (≈ 513 µM) | 290 µg/mL (≈ 783 µM) | 380 µg/mL (≈ 1030 µM) | at least 4 weeks | at least 4 weeks | 170 µg/mL (≈ 459 µM) | 420 µg/mL (≈ 1130 µM) | 580 µg/mL (≈ 1570 µM) | 0.79% | No form change | slightly hygroscopic (Increase in mass is less than 2 percent and equal to or greater than 0.2 percent) | Form change and purity decrease after storage ([2]; 25° C./60% RH, 4 weeks): No form change and obvious purity decrease; Form change and purity decrease after storage ([2]; 40° C./75% RH, 4 weeks): No form change and obvious purity decrease; Form change and purity decrease after storage ([2]; 80° C., 1 day): No form change and obvious purity decrease
6 | COc1cc(OC)c2c(=O)[nH]c(-c3cc(C)c(OCCO)c(C)c3)nc2c1 [Form CS8, 2-[4-(2-hydroxyethoxy)-3,5-dimethylphenyl]-5,7-dimethoxyquinazolin-4(3H)-one] | 280 µg/mL (≈ 756 µM) | – | 430 µg/mL (≈ 1160 µM) | at least 2 weeks | – | – | – | – | 0.34% | No form change | slightly hygroscopic (Increase in mass is less than 2 percent and equal to or greater than 0.2 percent) | Form change and purity decrease after storage ([2]; 25° C./60% RH, 2 weeks): No obvious form change and purity decrease
7 | COc1cc(OC)c2c(=O)[nH]c(-c3cc(C)c(OCCO)c(C)c3)nc2c1 [Form CS9, 2-[4-(2-hydroxyethoxy)-3,5-dimethylphenyl]-5,7-dimethoxyquinazolin-4(3H)-one] | 170 µg/mL (≈ 459 µM) | 200 µg/mL (≈ 540 µM) | 300 µg/mL (≈ 810 µM) | at least 10 months | at least 10 months | 130 µg/mL (≈ 351 µM) | 310 µg/mL (≈ 837 µM) | 370 µg/mL (≈ 999 µM) | 0.18% | doesn't change; also recorded: No form change | almost non hygroscopic | Form change and purity decrease after storage ([2]; 25° C./60% RH, 10 months): No form change and obvious purity decrease; Form change and purity decrease after storage ([2]; 40° C./75% RH, 10 months): No form change and obvious purity decrease
